Data: the NIST ThermoML archive (doi:10.1021/je5010214)
Numbers after ± are expanded uncertainties.

Conditions: Liquid, Vibrating tube method

CCCCO [butan-1-ol]
Conditions	mass density [kg/m3]
353.15 K, 65063 kPa	811.071 ± 0.96
353.16 K, 2113.4 kPa	763.181 ± 0.81
353.16 K, 33964 kPa	790.701 ± 0.88
353.16 K, 62043 kPa	809.275 ± 0.95
353.16 K, 66024 kPa	811.636 ± 0.96
358.15 K, 264.1 kPa	755.935 ± 0.81
358.15 K, 508.4 kPa	756.19 ± 0.81
358.15 K, 926.8 kPa	756.64 ± 0.82
358.15 K, 1013.9 kPa	756.732 ± 0.82
358.15 K, 3021.2 kPa	758.947 ± 0.81
358.15 K, 4930 kPa	760.98 ± 0.81
358.15 K, 10073 kPa	766.29 ± 0.82
358.15 K, 12137 kPa	768.259 ± 0.83
358.15 K, 14905 kPa	770.903 ± 0.83
358.15 K, 17041 kPa	772.871 ± 0.84
358.15 K, 17965 kPa	773.738 ± 0.84
358.15 K, 22175 kPa	777.415 ± 0.85
358.15 K, 25059 kPa	779.849 ± 0.86
358.15 K, 28035 kPa	782.278 ± 0.86
358.15 K, 30002 kPa	783.844 ± 0.87
358.15 K, 31978 kPa	785.37 ± 0.87
358.15 K, 32793 kPa	786.01 ± 0.88
358.15 K, 33850 kPa	786.716 ± 0.88
358.15 K, 35027 kPa	787.554 ± 0.88
358.15 K, 37872 kPa	789.731 ± 0.89
358.15 K, 40037 kPa	791.31 ± 0.89
358.15 K, 42100 kPa	792.749 ± 0.9
358.15 K, 47958 kPa	796.761 ± 0.92
358.15 K, 50038 kPa	798.154 ± 0.92
358.15 K, 52081 kPa	799.474 ± 0.93
358.15 K, 55073 kPa	801.393 ± 0.94
358.15 K, 57918 kPa	803.161 ± 0.94
358.15 K, 60043 kPa	804.453 ± 0.95
358.15 K, 62067 kPa	805.674 ± 0.96
358.15 K, 64986 kPa	807.407 ± 0.96
358.15 K, 66109 kPa	808.067 ± 0.97
358.16 K, 95.1 kPa	755.754 ± 0.81
358.16 K, 2083.9 kPa	757.886 ± 0.81
358.16 K, 6993.5 kPa	763.142 ± 0.82
358.16 K, 9030.2 kPa	765.202 ± 0.82
358.16 K, 20162 kPa	775.665 ± 0.84
358.16 K, 45054 kPa	794.81 ± 0.91
363.15 K, 94 kPa	752.456 ± 0.81
363.15 K, 334 kPa	752.741 ± 0.81
363.15 K, 601.7 kPa	753.061 ± 0.81
363.15 K, 892.9 kPa	753.404 ± 0.81
363.15 K, 961.6 kPa	753.487 ± 0.81
363.15 K, 1034.7 kPa	753.567 ± 0.81
363.15 K, 1986 kPa	754.594 ± 0.81
363.15 K, 2940.4 kPa	755.648 ± 0.81
363.15 K, 4979.2 kPa	757.84 ± 0.82
363.15 K, 9959.5 kPa	762.855 ± 0.82
363.15 K, 11971 kPa	764.806 ± 0.83
363.15 K, 14936 kPa	767.534 ± 0.83
363.15 K, 17973 kPa	770.255 ± 0.84
363.15 K, 19940 kPa	771.991 ± 0.84
363.15 K, 24872 kPa	776.146 ± 0.86
363.15 K, 27993 kPa	778.673 ± 0.86
363.15 K, 30062 kPa	780.285 ± 0.87
363.15 K, 31961 kPa	781.745 ± 0.88
363.15 K, 33033 kPa	782.563 ± 0.88
363.15 K, 34000 kPa	783.178 ± 0.88
363.15 K, 35028 kPa	783.945 ± 0.88
363.15 K, 37919 kPa	786.081 ± 0.89
363.15 K, 39916 kPa	787.488 ± 0.9
363.15 K, 42016 kPa	788.986 ± 0.9
363.15 K, 47947 kPa	793.03 ± 0.92
363.15 K, 50050 kPa	794.458 ± 0.93
363.15 K, 52023 kPa	795.718 ± 0.93
363.15 K, 54940 kPa	797.589 ± 0.94
363.15 K, 57917 kPa	799.479 ± 0.95
363.15 K, 59980 kPa	800.724 ± 0.96
363.15 K, 62043 kPa	802.008 ± 0.96
363.15 K, 64924 kPa	803.734 ± 0.97
363.15 K, 66088 kPa	804.418 ± 0.97
363.16 K, 6920.2 kPa	759.821 ± 0.82
363.16 K, 8964.8 kPa	761.886 ± 0.82
363.16 K, 21933 kPa	773.696 ± 0.85
363.16 K, 44987 kPa	791.029 ± 0.91
